# Measurements: BindingDB's records for doi:10.1016/0960-894X(95)00565-B (1996)
# Target: Arachidonate 15-lipoxygenase (Oryctolagus cuniculus)
# Experiment: Inhibitory activity against reticulocyte 15-lipoxygenase in rabbit was evaluated.
row,IC50 [µM],SMILES
1,> 25,COc1cc(CCc2ccc(NC(=O)c3ccc(C)cc3O)cc2)ccc1O [2-Hydroxy-N-{4-[2-(4-hydroxy-3-methoxy-phenyl)-ethyl]-phenyl}-4-methyl-benzamide]
2,1.2,"O=C(Nc1ccc(CCc2ccc(O)c(O)c2)cc1)c1cccc(Cl)c1O [3-Chloro-N-{4-[2-(3,4-dihydroxy-phenyl)-ethyl]-phenyl}-2-hydroxy-benzamide]"
3,> 25,"O=C(Nc1ccc(CCc2ccc(O)c(O)c2)cc1)c1ccc(-c2ccccc2)cc1O [3-Hydroxy-biphenyl-4-carboxylic acid {4-[2-(3,4-dihydroxy-phenyl)-ethyl]-phenyl}-amide]"
4,1.5,"O=C(Nc1ccc(CCc2ccc(O)c(O)c2)cc1)c1cc(Br)ccc1O [5-Bromo-N-{4-[2-(3,4-dihydroxy-phenyl)-ethyl]-phenyl}-2-hydroxy-benzamide]"
5,5,"O=C(Nc1ccc(CCc2ccc(O)c(O)c2)cc1)c1ccc(O)cc1O [N-{4-[2-(3,4-Dihydroxy-phenyl)-ethyl]-phenyl}-2,4-dihydroxy-benzamide]"
6,5,"Cc1ccc(C(=O)N(C)c2ccc(CCc3ccc(O)c(O)c3)cc2)c(O)c1 [N-{4-[2-(3,4-Dihydroxy-phenyl)-ethyl]-phenyl}-2-hydroxy-4,N-dimethyl-benzamide]"
7,> 25,"O=C(O)c1cccc(C(=O)Nc2ccc(CCc3ccc(O)c(O)c3)cc2)c1O [N-{4-[2-(3,4-Dihydroxy-phenyl)-ethyl]-phenyl}-2-hydroxy-isophthalamic acid]"
8,> 25,"COc1ccc(CCc2ccc(NC(=O)c3ccccc3O)cc2)cc1OC [N-{4-[2-(3,4-Dimethoxy-phenyl)-ethyl]-phenyl}-2-hydroxy-benzamide]"
